According to patent US11493451B2, “Colorimetric drug test strip using porous support material” (Palo Alto Research Center Incorporated, priority 2019, dated 2022):
Where two headings read alike, the source gives them in different places.

Columns and labels:
[1] = cited from earlier work; for Cmax in blood or plasma / Concentration in Saliva: THC (40 mg); for Concentration in Saliva: maximum concentration in oral fluid
[2] = THC and metabolite concentrations in oral fluid and whole blood after smoking a cannabis joint (Fabritius et al.)
From the text: (§1) While pharmacokinetic profile is specific to each individual drug, there are multiple challenges with immunoassay-based roadside drug testing. Current hand-held immunoassays drug testing devices from saliva detect the metabolites of the drugs in question. One challenge with metabolite testing is that depending on the drug and on the mode of administration, there may be delays in the detectability of the drug from the time of ingestion to the test time. For example, in the case of methylenedioxy-methamphetamine (MDMA) detection, the time to maximum concentration of (tmax) of MDMA is 2.8 hours, while for its main metabolite, methylenedioxyamphetamine (MDA), the tmax increases to 4.8 hours. […] This makes metabolite detection very challenging.

[3] = cited from earlier work
[4] = Cocaine and metabolites in human oral fluid and plasma following controlled administration (Scheidweiler et al.)
From the text: as §1

[5] = Cocaine (75 mg subcutaneous), cited from earlier work
[6] = Oral fluid and plasma MDMA and metabolite after controlled oral MDMA administration (Desrosiers et al.); type: in vivo, human; settings: MDMA (75 mg); for Kp: human, saliva (oral fluid) / plasma, read-out: Ratio Saliva/Blood
From the text: This makes metabolite detection very challenging.

[7] = after MDMA; cited from earlier work
[8] = MDMA (75 mg), oral, cited from earlier work; for Concentration in Saliva: maximum concentration in oral fluid
[9] = MA (20 mg), cited from earlier work; for Concentration in Saliva: maximum concentration in oral fluid
[10] = Methamphetamine disposition in oral fluid and plasma (Huestis et al.)
From the text: as §1

[11] = Cocaine (75 mg subcutaneous), cocaine vs BE + EME

SMILES: CCCCCc1cc(O)c2c(c1)OC(C)(C)[C@@H]1CCC(C(=O)O)=C[C@@H]21 [THC-COOH]
- Cmax in blood or plasma [1]: 41 ng/mL
- Concentration in Saliva [1]: 0.3 ng/mL
- Ratio Saliva/Blood ([2]; THC (40 mg)): 0.007

SMILES: CCCCCc1cc(O)c2c(c1)OC(C)(C)[C@@H]1CCC(C)=C[C@@H]21 [THC, Δ9-tetrahydrocannabinol]
- time over which saliva THC concentration decreases slowly after consumption ([3]; THC ingested from food, saliva): about 24 hours
- THC concentration in saliva after being ingested from food versus same amount of smoked THC ([3]; first 15 minutes, saliva): about ten times lower
- rapid decay after maximum concentration ([3]; smoked or vaped THC): 1 to 2 h
- time to peak effect and maximum concentration ([3]; smoked or vaped THC): seconds or minutes
- Cmax in blood or plasma [1]: 87 ng/mL
- Concentration in Saliva [1]: 636 ng/mL
- THC concentration in saliva relative to main metabolite THC-COOH (times higher) ([1]; in one study, saliva): ~2000 ×
- Ratio Parent:Metabolite, Cmax in blood or plasma ([2]; THC (40 mg), THC vs THC-COOH): 2.1
- Ratio Parent:Metabolite, concentration in saliva ([2]; THC (40 mg), THC vs THC-COOH): 2120
- Kp ([2]; human, saliva (oral fluid) / whole blood, inhaled, 40 mg): 7.3

SMILES: COC(=O)[C@H]1[C@@H](OC(=O)c2ccccc2)C[C@@H]2CC[C@H]1N2C [Cocaine, cocaine]
- Ratio Parent:Metabolite, Cmax in blood or plasma [4, 11]: 0.8
- Ratio Parent:Metabolite, concentration in saliva [4, 11]: 4.1
- Kp ([4]; human, saliva (oral fluid) / plasma, sc, 75 mg): 3.6
- Cmax in blood or plasma [5]: 305 ng/mL
- Concentration in Saliva ([5]; maximum concentration in oral fluid): 1092 ng/mL

SMILES: CNC(C)Cc1ccc2c(c1)OCO2 (stereo not drawn) [MDMA, methylenedioxy-methamphetamine]
- Ratio Parent:Metabolite, concentration in saliva ([6]; MDMA vs MDA): 40
- Kp [6]: 11
- time to maximum concentration (tmax) [7]: 2.8 h
- Cmax in blood or plasma [8]: 150 ng/mL
- Concentration in Saliva [8]: 1643 ng/mL

SMILES: CC(N)Cc1ccccc1 (stereo not drawn) [A]
- Concentration in Saliva [9]: 14 ng/mL

SMILES: CN[C@@H](C)Cc1ccccc1 [MA, methamphetamine]
- Cmax in blood or plasma [9]: 32 ng/mL
- Concentration in Saliva [9]: 192 ng/mL
- Ratio Parent:Metabolite, Cmax in blood or plasma ([10]; MA (20 mg), MA vs A): 5.3
- Ratio Parent:Metabolite, concentration in saliva ([10]; MA (20 mg), MA vs A): 13.7
- Kp ([10]; human, saliva (oral fluid) / plasma, 20 mg): 6

SMILES: CC(N)Cc1ccc2c(c1)OCO2 (stereo not drawn) [MDA, methylenedioxyamphetamine]
- Kp [6]: 5.8
- time to maximum concentration (tmax) [7]: 4.8 h
- Cmax in blood or plasma [8]: 7 ng/mL
- Concentration in Saliva [8]: 41 ng/mL
